Results reported in patent EP3294317B1, “ENHANCED ANTIBIOTIC COMPOSITION” (Universitat Autònoma de Barcelona, priority 2015, dated 2016).

Columns and labels:
[1] = test system: Salmonella enterica subsp. enterica ATCC 14028; assay: Colistin broth microdilution MIC with potentiator compounds (Example 1); format: cell-based; conditions: S. enterica ATCC 14028; colistin without potentiator
[2] = test system: Enterobacter aerogenes ATCC 13048; assay: as above; format: cell-based; conditions: E. aerogenes ATCC 13048; colistin without potentiator
[3] = test system: Escherichia coli ATCC 25922; assay: as above; format: cell-based; conditions: E. coli ATCC 25922; colistin without potentiator
[4] = test system: S. maltophilia K279a; assay: Colistin broth microdilution MIC with compound of formula I prepared in methanol or DMSO (Example 6); format: cell-based, Stenotrophomonas maltophilia; conditions: microdilution test with MHB, colistin without potentiator
Experimental: (§1) The potentiator effect of the compound of the invention in a new formulation was tested by using colistin sulphate as antibiotic in combination with the enhancer compound of formula I in front of resistant clinical isolates. […]
(§2) Tests were performed to determine the potentiator effect of the compound of the invention with two colistin resistant S. maltophilia strains as shown in Table 9. S. maltophilia K279a is a reference clinical strain. The origin of clinical strain OC323 together with K279a has been described previously (Huedo et al., Two Different rpf Clusters Distributed among a Population of Stenotrophomonas maltophilia Clinical Strains Display Differential Diffusible Signal Factor Production and Virulence Regulation, J. Bacteriol., 2014, 196, 2431-2442).
(§3) Selected compound of formula I was first dissolved in 100% of Methanol (HPLC Gradient Grade CHROMASOLV. Sigma, 34885-1L-R) to 10 mM. The compound was fairly soluble in methanol up to 10 mM and required vigorous vortex.
(§4) […] MICs were determined as described in the Example 1.
(§5) Strains colistin minimal inhibitory concentration (MIC), expressed in µg/mL, and the fold increase in bacterial susceptibility to colistin when combined with the potentiator compound previously dissolved in methanol ([…]) are shown in Table 9: TABLE 9

[5] = test system: S. maltophilia OC323; assay: as above; format: cell-based, Stenotrophomonas maltophilia; conditions: microdilution test with MHB, colistin without potentiator
Experimental: as §1, §2, §3, §4, §5

[6] = test system: Stenotrophomonas maltophilia ATCC 13637; assay: Colistin broth microdilution MIC with potentiator compounds (Example 1); format: cell-based; conditions: S. maltophilia ATCC 13637; colistin without potentiator
[7] = test system: Pseudomonas aeruginosa PAO1; assay: as above; format: cell-based; conditions: P. aeruginosa PAO1; colistin without potentiator
[8] = test system: S. maltophilia 53149; assay: Colistin broth microdilution MIC with potentiator compounds, resistant clinical isolates (Example 3); format: cell-based, Stenotrophomonas maltophilia; conditions: colistin without potentiator
Experimental: (§6) The potentiator effect of the compound of the invention and other compounds disclosed herein was tested using colistin sulfate as antibiotic and in combination with the enhancer compounds in front of resistant clinical isolates.
(§7) Tests were performed to determine the potentiator effect of the compound of the invention and other compounds disclosed herein with multidrug-resistant S. maltophilia and A. baumannii clinical strains as shown in Table 5: TABLE 5
(§8) For this experiment the potentiator compound was added to a colistin broth microdilution assay at a final concentration of 0.1mM. MICs were determined as described in the Example 1.
(§9) Colistin minimal inhibitory concentration (MIC), expressed in µg/mL, and the fold increase in bacterial susceptibility to colistin when combined with the potentiator compound (expressed as MIC in the presence of 1.0% DMSO / MIC in the presence of 0.1 mM of each potentiator compound and 1.0% DMSO) are shown in Table 6: […]

[9] = test system: S. maltophilia 197; assay: as above; format: cell-based, Stenotrophomonas maltophilia; conditions: colistin without potentiator
Experimental: as §6, §7, §8, §9

[10] = test system: S. maltophilia D457; assay: as above; format: cell-based, Stenotrophomonas maltophilia; conditions: colistin without potentiator
Experimental: as §6, §7, §8, §9

[11] = test system: S. maltophilia 257; assay: as above; format: cell-based, Stenotrophomonas maltophilia; conditions: colistin without potentiator
Experimental: as §6, §7, §8, §9

[12] = test system: S. maltophilia M30; assay: as above; format: cell-based, Stenotrophomonas maltophilia; conditions: colistin without potentiator
Experimental: as §6, §7, §8, §9

[13] = test system: Acinetobacter baumannii ATCC 15308; assay: Colistin broth microdilution MIC with potentiator compounds (Example 1); format: cell-based; conditions: A. baumannii ATCC 15308; colistin without potentiator
[14] = test system: Pseudomonas aeruginosa ATCC 27853; assay: as above; format: cell-based; conditions: P. aeruginosa ATCC 27853; colistin without potentiator
[15] = test system: A. baumannii 6963; assay: Colistin broth microdilution MIC with potentiator compounds, resistant clinical isolates (Example 3); format: cell-based, Acinetobacter baumannii; conditions: colistin without potentiator
Experimental: as §6, §7, §8, §9

[16] = test system: A. baumannii 6799; assay: as above; format: cell-based, Acinetobacter baumannii; conditions: colistin without potentiator
Experimental: as §6, §7, §8, §9

[17] = test system: Escherichia coli ATCC 9637; assay: Colistin broth microdilution MIC with potentiator compounds (Example 1); format: cell-based; conditions: E. coli ATCC 9637; colistin without potentiator

colistin [reference compound]
Colistin MIC [1]: 2 µg/mL
Colistin MIC [2]: 1 µg/mL
Colistin MIC [3]: 1 µg/mL
MIC to colistin [4]: S. maltophilia K279a (16 µg/mL)
MIC to colistin [5]: S. maltophilia OC323 (32 µg/mL)
Colistin MIC [6]: 8 µg/mL
Colistin MIC [7]: 1 µg/mL
Colistin MIC [8]: 32 µg/mL
Colistin MIC [9]: 32 µg/mL
Colistin MIC [10]: 32 µg/mL
Colistin MIC [11]: 64 µg/mL
Colistin MIC [12]: 32 µg/mL
Colistin MIC [13]: 0.5 µg/mL
Colistin MIC [14]: 0.5 µg/mL
Colistin MIC [15]: 0.125 µg/mL
Colistin MIC [16]: 0.125 µg/mL
Colistin MIC [17]: 0.5 µg/mL
